This is an account of results in publication PMC5929447 (Oncotarget, 2018).

One data set relates to H146 cell line. Put plainly: CellTiter-Glo cell viability, H146. To be noted: Homo sapiens, NCI-H146; 72 h of treatment. The format is cell-based. The method, then:
(§1) Cells were seeded into 96-well plates and treated at 8 points with 1:2 serial dilution of compounds. Cell viability was assessed and assayed for viability using CellTiter-Glo reagent (Promega) following the manufacturer's instructions. Plates were read using Tecan luminescence plate reader. Results were normalized to the viability of cells without compounds (control wells). The IC50 values were calculated using nonlinear regression algorithms in XCell software.

The next data set deals with BCL-2/BAX complex (Homo sapiens, UniProt P10415). Put plainly: Co-immunoprecipitation in BCL-2-overexpressing HeLa cells. The format is cell-based. The note with it: 2 h.
In the next data set the target is BCL-2 (Homo sapiens, UniProt P10415). Briefly: Isothermal titration calorimetry (ITC), BCL-2. To be noted: binding to BCL-2. The method, then: The protein was dialyzed prior to use in 2 L of 25 mM HEPES, 150 mM NaCl, 5% glycerol (v/v), 0.5% MTG (v/v) at pH 7.4 for 3 hours at room temperature. The protein was dialyzed using a 3.5 K MWCO Slide-A-Lyzer™ cassette. The protein solution was recovered, spin-filtered through a […] frit. The filtered protein was quantified by UV absorbance at 280 nm using an extinction coefficient of 36440 M^-1cm^-1. 500 ml of dialysis buffer was retained (remainder used to rinse out SCHOT bottle) and degassed for a minimum of 30 mins under vacuum with constant stirring. […] The solutions were carefully matched to ensure same solvent and buffer conditions were present in both syringe and cell (this is to minimize heat of dilution effects). The final solution was the dialysis buffer plus 1% DMSO and 0.05% P20. The experiment was performed over 13 injections with stirring at 1000 rpm, gain setting low and at 25° C. Pure water was used in the reference cell. The first injection was 0.5 μl with a duration of 1 second with a gap of 150 seconds until the further 12 injections of 3.05 μl with a duration 6.1 seconds and a 240 second interval between injections. Data was analyzed using the vendor supplied software, PEAQ-ITC Analysis Software. The data model used was the single site model. The data shown is the average of 2 or 3 independent experiments.

The target in a further data set is BCL-XL/BAX complex (Homo sapiens, UniProt Q07817). Put plainly: Co-immunoprecipitation in BCL-XL-overexpressing HeLa cells. The note with it: 2 h.
Data set [1] concerns caspase-3 activity in RS4;11 tumor xenografts. Put plainly: Caspase-3 activity in RS4;11 tumor xenografts. The format is in vivo. To be noted: 100 mg/kg single oral gavage, 16 h post dosing, SCID mice. The method, then: Body weights were recorded and tumors were measured with digital calipers twice to three times a week. Tumor volume was calculated using the formula: length × width^2/2. Percent changes in body weights was calculated as (BWcurrent - BWinitial)/(BWinitial) × 100. Data is presented as percent body weight change from the day of treatment initiation. When tumors reached approximately 200 mm^3 for efficacy studies or 300 mm^3 for pharmacodynamic studies, mice were randomized. […] Mice were treated via oral gavage at 10 ml/kg with the doses and schedules described in the figure. For pharmacodynamic studies, blood and tumors were removed 16 h post dosing and immediately snap-frozen. Total proteins were extracted from the tumors and caspase-3 activity was assessed in triplicate using CaspACE® Assay System (Promega). Platelet cell counts were determined 16 hours post dosing using Coulter AcT diff (Beckman).

In the next data set the test system is RS4;11 cell line. Put plainly: CellTiter-Glo cell viability, RS4;11. The note with it: Homo sapiens, 72 h of treatment. The format is cell-based. The method, then: as §1
A further data set addresses MCL-1 (Homo sapiens, UniProt Q07820). Put plainly: Fluorescence polarization (FP) with Fluorescein-PUMA, MCL-1. The format is binding.
The test system of the next data set is platelets. Put plainly: Platelet counts in RS4;11-bearing mice. The format is in vivo. The note with it: 100 mg/kg single oral dose, 16 h post dosing. As to the method:
(§2) When tumors reached approximately 200 mm^3 for efficacy studies or 300 mm^3 for pharmacodynamic studies, mice were randomized. […] Mice were treated via oral gavage at 10 ml/kg with the doses and schedules described in the figure.
For pharmacodynamic studies, blood and tumors were removed 16 h post dosing and immediately snap-frozen. Total proteins were extracted from the tumors and caspase-3 activity was assessed in triplicate using CaspACE® Assay System (Promega). Platelet cell counts were determined 16 hours post dosing using Coulter AcT diff (Beckman).

Data set [2] has as its system isolated platelets from healthy volunteers. Briefly: Apoptosis (annexin V) in isolated platelets. The format is cell-based. To be noted: Homo sapiens, Platelet; 4 healthy donors, 3 h; read-out: EC50 apoptosis (PS+) in isolated platelets. As to the method: Peripheral blood samples from CLL patients were obtained with informed patient consent and local ethical committee approval (UHL-09723). […] Interphase fluorescence in situ hybridization (FISH) was performed for detection of 17p13 deletion. Mantle cell lymphoma (MCL) primary cells were obtained after informed consent from MCL patients treated at the department of clinical hematology from the University Hospital of Nantes, France. Peripheral MCL cells from blood or pleural effusion, were purified after Ficoll-Hypaque separation with immuno-magnetic anti-CD19 beads (Miltenyi, Paris, France). Primary cells were cultured in RPMI-1640 supplemented with 10% FCS and 2 mM glutamine. Human platelets were isolated from citrate blood donated by healthy volunteers. Washed platelets were cultured in Hepes-buffered saline (HBS, 10 mM Hepes, 150 mM NaCl, 5 mM KCl, 1 mM MgSO4, pH 7.4).
EC50 values were calculated using GraphPadPrism (non-linear fit, sigmoidal dose response, variable slope). […] Cell death was assessed in the CD19+ primary MCL cells by annexinV-FITC staining combined with an analysis of altered cellular morphology (lower FCS). Fluorescence was analyzed on FACSCalibur.

Data set [3] concerns BCL-XL-dependent FL5.12 cells. Put plainly: Apoptosis (annexin V/PI) in FL5.12 cells expressing BCL-XL upon IL-3 withdrawal. To be noted: 24 h upon IL-3 withdrawal.
The subject of data set [4] is BCL-2-dependent FL5.12 cells. Briefly: Apoptosis (annexin V/PI) in FL5.12 cells expressing BCL-2 upon IL-3 withdrawal. The format is cell-based, murine. The note with it: 24 h upon IL-3 withdrawal.
For the next data set, the target named is T1, BFL-1 (Homo sapiens, UniProt Q16548).
T1 sequence (Q16548 1-175): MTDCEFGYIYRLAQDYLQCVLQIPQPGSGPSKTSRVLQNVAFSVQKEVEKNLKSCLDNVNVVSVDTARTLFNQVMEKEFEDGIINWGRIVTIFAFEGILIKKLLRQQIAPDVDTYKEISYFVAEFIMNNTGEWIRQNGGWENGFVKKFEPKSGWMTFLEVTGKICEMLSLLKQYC
Briefly: Fluorescence polarization (FP) with Fluorescein-PUMA, BFL-1. The note with it: at 3E-05 M.

The test system of a further data set is Toledo xenograft. Put plainly: Toledo xenograft efficacy. To be noted: 200 mg/kg oral five times a week for 3 weeks, day 21. The format is in vivo, mice. As to the method: Experiments were performed in SCID/beige female mice from Charles River Laboratories, Massachusetts, USA. Animals, approximately 7-8 weeks of age at the start of the treatment were allowed to acclimate in animal facility with access to food and water ad libitum for 3 days prior to manipulation. Animals were handled in accordance with IACUC regulations and guidelines for experiments performed in the USA and with European and French regulation for the protection of vertebrate animals for experiments performed in France. Animal well-being and behavior, including grooming and ambulation were monitored at least once a day. General health of mice was monitored and mortality recorded daily. Any moribund animals were sacrificed.
RS4;11 Acute Lymphoblastic Leukemia cell lines was obtained from ATCC. Toledo (Diffuse Large B-Cell Lymphoma) human cell lines were obtained internally through Bioresources and the Novartis-Cancer Cell Line Encyclopedia. Cells were free of Mycoplasma and murine viral contamination in the IMPACT VIII PCR assay panel (IDEXX RADIL, IDEXX laboratories INC, Westbrook, ME, USA). Cells used for subcutaneous implantation were cultured in RPMI plus 10% FBS at 37° C in a humidified atmosphere containing 5% carbon dioxide). […] Cells were resuspended in a 1:1 mixture of cold DPBS (Dulbecco's Phosphate-Buffered Saline) and Matrigel™ (Becton-Dickinson #354234) at a concentration of 3 × 10^7 cells/ml for Toledo cells, and of 1 × 10^7 cells/ml for RS4;11 cells.
For each experiment, female SCID/beige mice were implanted subcutaneously (right axillary region) with 3 × 10^6 Toledo or RS4;11 (1 × 10^6 cells for efficacy studies and 1 × 10^7 cells for pharmacodynamics studies) suspended in 1:1 mixture of cold DPBS and Matrigel™ in a total volume of 100 μl. Body weights were recorded and tumors were measured with digital calipers twice to three times a week. Tumor volume was calculated using the formula: length × width^2/2. Percent changes in body weights was calculated as (BWcurrent - BWinitial)/(BWinitial) × 100. Data is presented as percent body weight change from the day of treatment initiation.
as §2
For efficacy studies, percent treatment/control (T/C) values were calculated using the following formula: %T/C = 100 × ΔT/ΔC if ΔT > 0. Regression = 100 × ΔT/Tinitial if ΔT < 0 where: T = mean tumor burden of the drug-treated group on the final day of the study; ΔT = mean tumor burden of the drug-treated group on the final day of the study – mean tumor burden of the drug-treated group on initial day of dosing; Tinitial = mean tumor burden of the drug-treated group on initial day of dosing; C = mean tumor burden of the control group on the final day of the study; and ΔC = mean tumor burden of the control group on the final day of the study – mean tumor burden of the control group on initial day of dosing. If the tumor volume was less than 14 mm^3 for more than 3 consecutive measurements, animals were considered in complete regression (CR).

“And” between values parts separate entries of the source, which are not always exact repeats. Equal entries are not always repeated.

Sequence of BCL-2 (P10415 whole entry): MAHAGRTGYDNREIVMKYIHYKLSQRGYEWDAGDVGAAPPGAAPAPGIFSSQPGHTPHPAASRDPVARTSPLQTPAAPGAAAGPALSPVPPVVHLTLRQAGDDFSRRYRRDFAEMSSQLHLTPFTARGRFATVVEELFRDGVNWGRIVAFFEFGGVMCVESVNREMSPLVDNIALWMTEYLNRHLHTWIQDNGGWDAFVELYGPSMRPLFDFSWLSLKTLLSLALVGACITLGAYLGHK
Sequence of MCL-1 (Q07820 whole entry): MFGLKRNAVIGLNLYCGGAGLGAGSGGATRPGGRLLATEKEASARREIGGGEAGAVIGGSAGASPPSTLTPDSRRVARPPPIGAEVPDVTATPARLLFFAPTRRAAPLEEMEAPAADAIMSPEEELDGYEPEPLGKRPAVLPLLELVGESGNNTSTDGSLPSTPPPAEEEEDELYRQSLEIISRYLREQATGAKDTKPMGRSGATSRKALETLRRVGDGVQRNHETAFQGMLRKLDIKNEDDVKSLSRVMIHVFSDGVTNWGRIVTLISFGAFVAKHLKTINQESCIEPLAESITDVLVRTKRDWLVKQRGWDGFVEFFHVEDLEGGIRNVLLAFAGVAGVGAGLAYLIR
Sequence of BCL-2/BAX complex (P10415 whole entry, one chain of several): as the sequence (P10415 whole entry) above
Sequence of BCL-XL/BAX complex (Q07817 whole entry, one chain of several): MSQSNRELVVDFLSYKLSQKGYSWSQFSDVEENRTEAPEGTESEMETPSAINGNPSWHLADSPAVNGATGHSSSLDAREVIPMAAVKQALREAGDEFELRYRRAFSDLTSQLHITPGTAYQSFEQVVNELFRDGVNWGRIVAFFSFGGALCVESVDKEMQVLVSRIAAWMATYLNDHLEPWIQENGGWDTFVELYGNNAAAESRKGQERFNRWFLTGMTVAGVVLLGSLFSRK
Procedure for BCL-XL/BAX complex: Effecten reagent (Qiagen), with 3xFlag-tagged BCL-XL
24 h later, transfected Hela and RS4;11
were put under neomycin selection (800 µg/ml, Invitrogen) were then subjected to immunoprecipitation with anti-
Procedure for BFL-1: Final concentrations of MCL-1, BFL-1, BCL-2 and BCL-XL proteins were 10, 10, 10 and 20 nM respectively. The assay plates were incubated for 2 hours at room temperature and the FP was measured on a Synergy 2 reader (Ex. 528 nm, Em. 640 nm, Cut-off 510 nm). The binding of increasing doses of compound was expressed as a percentage reduction in mP compared to the window established between ‘DMSO only’ and ‘total inhibition’ control (30 μM PUMA). […] The KI was subsequently calculated as previously described [42].

Consider `CC1(C)CCC(c2ccc(Cl)cc2)=C(CN2CCN(c3ccc(C(=O)NS(=O)(=O)c4ccc(N[C@H](CCN5CCOCC5)CSc5ccccc5)c(S(=O)(=O)C(F)(F)F)c4)cc3)CC2)C1` [ABT-263, reference compound], for which the IC50 is 49.7 nM in the data set on H146 cell line and 41.5 nM with RS4;11 cell line. At BCL-2/BAX complex, the “effect on BCL-2/BAX complex in BCL-2-overexpressing HeLa cells” value was “disrupt both BCL-2/BAX and BCL-XL/BAX complexes”. For the same molecule, the “N (sites), stoichiometry” value at BCL-2 was found to be 0.8 sites. For the same molecule, on BCL-2, the “∆H (enthalpy delta)” value is “–13.1 kcal/mol”. At BCL-XL/BAX complex, the “effect on BCL-XL/BAX complex in BCL-XL-overexpressing HeLa cells” value is “disrupt both BCL-2/BAX and BCL-XL/BAX complexes”. Also, the “caspase-3 activity in tumor, times higher than in vehicle-treated animals” value in data set [1] is reported as “about 20 times”. In addition, at MCL-1 (at 10E-06 M), the “FP_MCL-1, % of inhibition at the maximal tested concentration” value was 9.4%@10E-06. The “platelet counts in vivo” value with platelets is “strong decrease of platelet counts”.

On to `CN(C)CC[C@H](CSc1ccccc1)Nc1ccc(S(=O)(=O)NC(=O)c2ccc(N3CCN(Cc4ccccc4-c4ccc(Cl)cc4)CC3)cc2)cc1[N+](=O)[O-]` [ABT-737, reference compound], for which the EC50 in data set [2] turned out to be 30 nM. The “apoptosis induction (PS+ cells) in BCL-XL-dependent FL5.12 cells” value in [3] is “efficiently induced apoptosis”. Further, in data set [4], the “apoptosis induction (PS+ cells) in BCL-2-dependent FL5.12 cells” value is on record as “efficiently induced apoptosis”.

As for `CC1(C)CCC(CN2CCN(c3ccc(C(=O)NS(=O)(=O)c4ccc(NCC5CCOCC5)c([N+](=O)[O-])c4)c(Oc4cnc5[nH]ccc5c4)c3)CC2)=C(c2ccc(Cl)cc2)C1` [ABT-199, reference compound], at BCL-2, the “N (sites), stoichiometry” value amounted to 1.1 sites and the “∆H (enthalpy delta)” value is “–12.1 kcal/mol”. Moreover, the “FP_BFL-1, % of inhibition at the maximal tested concentration” value at BFL-1 was 6.4%@3E-05. Besides, in the data set with Toledo xenograft, the “% T/C” value was 6 % T/C. The “Mean TV change” value in the data set on Toledo xenograft (mean ± s.e.m.) was 104.44 ± 70.31 mm3. For the same molecule, the “FP_MCL-1, % of inhibition at the maximal tested concentration” value on MCL-1 (at 30E-06 M) is 14.9% and 11.8%.
